Measured values from paper PMC5877387, “Nanoparticles engineered to bind cellular motors for efficient delivery” (Journal of Nanobiotechnology, 2018).

How the values were obtained:
Vero cells = assay: Inhibition assays of NP transport with cytoskeleton-depolymerizing drugs; type: cell-based; details: Nocodazole 2.5 µM, Latrunculin A 0.1 µM; 1.5 µM NPs, 37 °C
[1] = Cytotoxicity of inhibitors, trypan blue exclusion; details: at working concentrations (Nocodazole 2.5 µM, Latrunculin A 0.1 µM)

SMILES	effect of drug on Au@DBP distribution, movement and spread (Vero cells)	cytotoxicity (cell death) after drug incubation [1]
C/C1=C/C(=O)O[C@@H]2C[C@@H](CC[C@H](C)/C=C\C=C\CC1)O[C@@](O)([C@@H]1CSC(=O)N1)C2 [Latrunculin A]	did not stop	≤ 10%
COC(=O)Nc1nc2ccc(C(=O)c3cccs3)cc2[nH]1 [Nocodazole]	reversibly stopped	≤ 10%
